Test results published in patent publication US11457626B2, “Method for impairing a Cassie-Baxter state” (priority 2016, dated 2022).

Tests used:
demodex mites = details: mineral oil as control and solvent; cited from earlier work
[1] = acidity relative to oxalic acid; format: physicochemical
Description: Further, their respective salts, sodium dipicolinate and monosodium phosphate both have essentially neutral pHs and both are known, powerful natural coordination complex chelators that prefer calcium over sodium in all but basic pH environments. […] This calcium coordination effect is why acidic anions dipicolinic acid and phosphoric acid, as well as their respective salts, are commonly used detergent ingredients (European Patent No. EP 0358472 A2, Detergent Compositions). In addition, phosphates (the phosphoric acid salts) are so safe and non-toxic that they are used as food additives and as emulsifiers.

[2] = cited from earlier work
[3] = solubility / dispersibility of dipicolinic acid in vehicles; format: physicochemical
Description: As natural emulsifiers, the use of phosphates also greatly expands the possible range of usable solution/suspensions available for the present invention to concomitantly include, along with these phosphates, other arthropod plastron chemical degraders, such as carboxylic, dipicolinic, oxalic acids and their respective salts, as well as terpenes and low molecular weight non-polar alkanes, including cyclic alkanes. Dipicolinic acid is also dually beneficially to this plastron degrading effect because it is also a potent anti-inflammatory PLA2 inhibitor and thus would help reduce the concomitant skin inflammation associated with demodex infestations (U.S. Pat. No. 6,127,393, Antiproliferative, antiinfective, antiinflammatory, autologous immunization agent and method). […] However, the inventor has discovered that dipicolinic acid is soluble in glycerin, a common skin product ingredient, and is colloidal in low molecular weight non-polar solutions and in hyaluronic acid (a very high molecular weight […] common to the eye).

PLA2 = details: anti-inflammatory; cited from earlier work

SMILES: CC1=CCC(O)(C(C)C)CC1 (centres unmarked) [terpinen-4-ol]
- activity against demodex mites among tea tree oil ingredients (demodex mites): most active ingredient

SMILES: O=P(O)(O)O [phosphoric acid]
- times less acidic than oxalic acid [1]: about 10 times

SMILES: O=C(O)c1cccc(C(=O)O)n1 [dipicolinic acid]
- times less acidic than oxalic acid [1]: about 10 times
- solubility in water [2]: limited solubility
- solubility in glycerin ([3]; glycerin): soluble
- state in hyaluronic acid ([3]; hyaluronic acid): colloidal
- state in low molecular weight non-polar solutions ([3]; low molecular weight non-polar solutions): colloidal
- PLA2 inhibition (PLA2): potent
